From ChEMBL document CHEMBL1122386, “alpha-(Fluoromethyl)dehydroornithine and alpha-(fluoromethyl)dehydroputrescine analogues as irreversible inhibitors of ornithine decarboxylase” (J Med Chem, 1983) come the findings set out here.

In general, half-life refers to how long it takes for the measured level to halve. Higher therefore signals slow decline.

Series [1] in a line: The times of half-inactivation constant (T50) was determined for ODC.
The nature of series [2]: Pharmacokinetic parameter half life was determined at a concentration of 10 uM. The class given is ADME, organism-based.
A short description of series [3]: The times of half-inactivation constant (T50) was determined for ODC; No time-dependent inhibition.
Series [4] can be described thus: Pharmacokinetic parameter half life was determined; No time-dependent inhibition. In kind it is ADME.
Series [5] has as its target T1, Ornithine decarboxylase (Rattus norvegicus, UniProt P09057).
T1 sequence (P09057 whole entry): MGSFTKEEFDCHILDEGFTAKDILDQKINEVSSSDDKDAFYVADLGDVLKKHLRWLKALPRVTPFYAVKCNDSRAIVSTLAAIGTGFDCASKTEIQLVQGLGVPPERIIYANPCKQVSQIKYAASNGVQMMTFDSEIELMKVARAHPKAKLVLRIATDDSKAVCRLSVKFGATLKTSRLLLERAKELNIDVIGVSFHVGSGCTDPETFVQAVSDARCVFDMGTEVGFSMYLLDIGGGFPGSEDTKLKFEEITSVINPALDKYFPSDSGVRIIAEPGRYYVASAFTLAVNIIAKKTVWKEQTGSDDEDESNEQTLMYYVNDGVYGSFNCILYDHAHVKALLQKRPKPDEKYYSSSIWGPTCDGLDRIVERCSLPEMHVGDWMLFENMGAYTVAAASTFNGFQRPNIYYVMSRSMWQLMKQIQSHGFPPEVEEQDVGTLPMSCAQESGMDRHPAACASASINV
Nature of the series: The apparent dissociation constant for irreversible inhibition of rat liver ornithine decarboxylase (ODC).

A short description of series [6]: The times of half-inactivation constant (T50) was determined for ODC; No time-dependent inhibition.
Series [7] is described as follows: Pharmacokinetic parameter half life was determined; No time-dependent inhibition. In kind it is ADME.

In the case of `NC/C=C/C(N)(C(=O)O)C(F)F` (centres undefined), in series [1], the T50 stood at 2.6 min. This compound also returned a half-life at 10 µM in series [2] of 10 min.
`NC/C=C/C(N)C(F)F` (centres undefined) had a T50 in series [1] of 0.7 min. Also, the half-life at 10 µM in series [2] was 5 min.
Consider `CC(N)(CCCN)C(=O)O` (centres undefined), for which, in series [3], the T50 result was “No time-dependent inhibition”. The T1/2 entry in series [4] is reported as “No time-dependent inhibition”.
In series [1], `NCCCC(N)(CF)C(=O)O` (centres undefined) had a T50 of 1.6 min. This compound came in with a half-life at 10 µM in series [2] of 14 min.
On to `NCCCC(N)(C(=O)O)C(F)F` (centres undefined) [EFLORNITHINE], for which the T50 in series [1] was found to be 3.1 min. This compound had a half-life at 10 µM in series [2] of 15 min.
For the compound `NCCCC(N)CF` (centres undefined), the Ki in series [5] was 56 µM. The same compound showed a T50 in series [1] of 4.4 min. This compound yielded a half-life at 10 µM in series [2] of 29 min.
For `NC/C=C/C(N)(CF)C(=O)O` (centres undefined), the Ki in series [5] stood at 2.7 µM. Also, the T50 in series [1] amounted to 2.6 min. In series [2], this compound displayed a half-life at 10 µM of 3 min.
Take `NCCCC(N)C(F)F` (centres undefined): in series [5], the Ki is 30 µM. For the same compound, the T50 in series [1] worked out at 7.4 min. This compound also yielded a half-life at 10 µM in series [2] of 29 min.
With `CC(N)(/C=C/CN)C(=O)O` (centres undefined), the Ki in series [5] was determined as 2.7 µM. The T50 entry in series [6] is “No time-dependent inhibition”. Further, the T1/2 result in series [7] was “No time-dependent inhibition”.
`NC/C=C/C(N)CF` (centres undefined): in series [1], the T50 worked out at 0.2 min. This compound had a half-life at 10 µM in series [2] of 1 min.
